In patent US10208009B2, “Hydroxyl pyranone compound, method for producing same, and cosmetics composition comprising compound” (AMOREPACIFIC CORPORATION, priority 2015, dated 2019):

Test system: human adipose tissue derived mesenchymal stem cells (hAT-MSCs)
Assay: Adipocyte differentiation promoting effect: adiponectin expression (ELISA) in differentiating mesenchymal stem cells
Format: cell-based
Parameters: Adiponectin (pg/ml, Avg ± S.D.): unit of the concentration uncertain
Conditions: for Adiponectin (pg/ml, Avg ± S.D.): medium collected on 14th day, ELISA; for expression level of adiponectin (in words): IDX differentiation medium + material, 14th day, summary of Table 1
Protocol: In order to examine the adipocyte differentiation promoting effect of the compounds prepared in the Example, the following test was carried out.
Adiponectin is a typical protein hormone secreted from adipocytes. It has been reported that as adipocytes are differentiated, the expression of adiponectin is increased. Therefore, the adipocyte differentiation promoting effect was confirmed by measuring the amount of adiponectin expressed in the cell culture medium when treated with the novel compound of the present invention, which is an indicator of adipocyte differentiation promoting.
The adipocyte differentiation was performed by culturing human adipose tissue derived mesenchymal stem cells (hAT-MSCs) from Lonza Inc. (Walkersville, Md., USA) according to Lonza's guidelines. The adipocyte differentiation was carried out using the method recommended by Lonza Inc., except that the adipocyte differentiation of adipose-derived mesenchymal stem cells is induced by using troglitazone (TRO) instead of indomethacin. Specifically, the mesenchymal stem cells were differentiated into adipocytes by adding the medium for adipocyte differentiation (hereinafter referred to as IDX), which was prepared by mixing […] of insulin, […] of Dexamethasone (DEXA), 0.5 mM of isobutylmethylxanthine (IBMX) and […] of TRO, to the culture medium of mesenchymal stem cells, and then culturing it.
In order to determine the expression level of adiponectin, after the medium for adipocyte differentiation was collected on the 14th day of differentiation, the amount of adiponectin was quantified using the Adiponectin ELISA Kit (R & D systems, Cat. No. DY1065) (each data value was corrected by the control group). The specific measurement method using Adiponectin ELISA Kit was as follows.
First, the capture antibody was reacted in a 96-well plate, washed with washing buffer solution, and then the material shown in Table 1 below was added and reacted at room temperature for 2 hours. Thereafter, while washing three times every time when going through each step, the detection antibody, the HRP enzyme, the substrate solution, and the stop solution were added in order and reacted for the time indicated in the protocol. After the final reaction, the absorbance was measured at a wavelength of 450 nm using a spectrophotometer.

[1] = IDX differentiation medium + material at 60 (unit uncertain)

SMILES	Adiponectin (pg/ml, Avg ± S.D.) [1] [pg/mL]	Adiponectin (pg/ml, Avg ± S.D.) (IDX differentiation medium + material at 400 (unit uncertain)) [pg/mL]	expression level of adiponectin (in words)	Adiponectin (pg/ml, Avg ± S.D.) (IDX differentiation medium + material (concentration not given)) [pg/mL]
O=C(/C=C/c1ccc2c(c1)OCO2)OCc1cc(=O)c(O)co1 [Seletinoid G]	1505 ± 109			
O=c1cc(CO)occ1O [Kojic acid]		303 ± 98	not increased	
CC1=CCCC(C)(C)C1/C=C/C(=O)OCc1cc(=O)c(O)co1 (stereo not drawn) [compound of example (Formula 1), 3-(2,6,6-trimethyl-cyclohex-2-enyl)-propenoic acid 5-hydroxy-4-oxo-4H-pyran-2-ylmethyl ester]	1730 ± 120		increases almost similarly to that with Glibenclamide	
COc1ccc(Cl)cc1C(=O)NCCc1ccc(S(=O)(=O)NC(=O)NC2CCCCC2)cc1 [Glibenclamide]				1920 ± 100
